The text below walks through data of patent publication US11578041B2, “Crystals of hydroxychloroquine sulfate” (Genovate Biotechnology Co. Ltd., priority 2020, dated 2023).

Broadly, the Solubility is how much of the substance goes into solution per volume. Low readings indicate a poorly soluble substance, high ones a readily soluble substance.

Series [1] deals with Rat Pleurisy Macrophage Model. The conditions noted are these: compared with (R)-(-)-isomer; cited from earlier work.
The conditions of series [2]: animal study; cited from earlier work.
Series [3] is described as follows: Solubility test in 16 solvents by stepwise solvent addition. Type of series: physicochemical.
Series [4] in a line: Hygroscopicity by dynamic vapor sorption analysis. Type of series: physicochemical. To be noted: for RH at which moisture is adsorbed (adsorption curve) / moisture content: 25° C.; for RH at which moisture is adsorbed (adsorption curve): 5% RH increase per step from 0 to 95% RH; for moisture content: at 95% RH; for hygroscopicity compared with the amorphous form: overall conclusion. The procedure: Type A crystal, type B crystal, and an amorphous form of (S)-(+)-hydroxychloroquine sulfate were subjected to dynamic vapor sorption analysis to compare their hygroscopicity using a VTI-SA vapor sorption analyzer from TA Instruments (_New Castle, Del., USA). Each was exposed to a series of relative-humidity (“RH”)-change steps at 25° C., i.e, a 5% RH increase per step from 0 to 95% RH and then a 5% RH decrease per step from 95% to 5% RH.

Series [5] is described as follows: Stability of crystal stirred in solvents, solid analysed by XRPD and chiral HPLC. To be noted: room temperature, 1 day. It is filed as physicochemical. The procedure:
Further, the stability of type A crystal was determined by stirring the crystal (10 mg) in each of nine solvent (0.5 mL) at room temperature for 1 day. For the nine solvents, see Table 6 below. The resulting solid was analyzed by XRPD and chiral HPLC containing a chiral column of DAICEL CHIRALCEL OD-H, 250×4.6 mm, 5 μm.

Series [6] in a line: Thermal stability by Variable Temperature PXRD under nitrogen. It is filed as physicochemical. Here is the method: The stability of type A crystal was also determined by heating the crystal to 30° C., 80° C., 130° C., 160° C., 180° C., and 210° C. under nitrogen using the Variable Temperature PXRD technique. […] Only when the temperature reached 80° C., 160° C. and 210° C., it was converted to type B, C, and D crystals, respectively.

Consider `CCN(CCO)CCC[C@H](C)Nc1ccnc2cc(Cl)ccc12.O=S(=O)(O)O` (single isomer, unassigned) [(S)-(+)-isomer], for which, in series [1], the “more efficacious than the (R)-(-)-isomer” value is listed as 70%. Also, the “accumulation in ocular tissues compared with the (R)-(-)-isomer” value in series [2] was “much less”.
With “(±)-hydroxychloroquine [salt-free form of (±)-hydroxychloroquine]”, the Solubility in series [3] (2-Methyl-tetrahydrofuran) is more than 38 mg/mL; in series [3] (Acetone) it was more than 38 mg/mL; in series [3] (Acetonitrile), 6.7 to 20 mg/mL; in series [3] (Dichloromethane), more than 40 mg/mL; in series [3] (Dioxane), more than 40 mg/mL; in series [3] (Ethanol) it was more than 42 mg/mL. Moreover, the Solubility in series [3] (Ethyl acetate) is 6.7 to 20 mg/mL; in series [3] (Isopropanol), more than 38 mg/mL; in series [3] (Isopropyl acetate) it was 6.7 to 20 mg/mL; in series [3] (Methanol) it was more than 40 mg/mL; in series [3] (Methyl isobutyl ketone) it was more than 42 mg/mL; in series [3] (Methyl tert-butyl ether), less than 2.1 mg/mL. Also, the Solubility in series [3] (Tetrahydrofuran) is recorded as more than 38 mg/mL; in series [3] (Toluene) it was less than 2.0 mg/mL; in series [3] (Water), less than 1.9 mg/mL; in series [3] (n-Heptane), less than 2.1 mg/mL.
Take `CCN(CCO)CCC[C@H](C)Nc1ccnc2cc(Cl)ccc12.O=S(=O)(O)O` [type A crystal, (S)-(+)-hydroxychloroquine sulfate]: the “RH at which moisture is adsorbed (adsorption curve)” value (“RH at which moisture is adsorbed” below) in series [4] was more than 85 % RH. Moreover, the moisture content in series [4] came out at 19%. Further, the “hygroscopicity compared with the amorphous form” value in series [4] is “less hygroscopic”. Also, the Crystal change entry in series [5] (Acetone), in series [5] (Acetonitrile), in series [5] (Dichloromethane), in series [5] (Ethanol), in series [5] (Ethanol/water (9/1)) and in series [5] (Ethyl acetate) was “Not found” in each case. The Crystal change result in series [5] (Isopropyl acetate) is “Not found”; in series [5] (Methanol), “Clear solution”; in series [5] (Tetrahydrofuran), “Not found”. Further, the “ee of resulting solid” value in series [5] (Acetone) was found to be 95.4%; in series [5] (Acetonitrile), 95.6%; in series [5] (Dichloromethane) it was 95.8%; in series [5] (Ethanol), 96.7%; in series [5] (Ethanol/water (9/1), starting ee 96.2%), 99.2%; in series [5] (Ethyl acetate), 88.8%. For the same compound, the “ee of resulting solid” value worked out at 95.5% in series [5] (Isopropyl acetate) and 95.3% in series [5] (Tetrahydrofuran). Moreover, in series [5] (nine solvents), the “stability in the test solvents (summary)” value was “unexpectedly stable in all test solvents except in methanol”. In series [6] (Variable Temperature PXRD under nitrogen), the “stability at room temperature” value is recorded as “highly stable”. Also, the “temperature at which converted to type B crystal” value in series [6] (heating under nitrogen) worked out at 80 °C. In series [6] (heating under nitrogen), the “temperature at which converted to type C crystal” value amounted to 160 °C. The “temperature at which converted to type D crystal” value in series [6] (heating under nitrogen) worked out at 210 °C.
`CCN(CCO)CCC[C@H](C)Nc1ccnc2cc(Cl)ccc12.O=S(=O)(O)O` [type B crystal, (S)-(+)-hydroxychloroquine sulfate]: in series [4], the “RH at which moisture is adsorbed” value was “higher than 60 % RH”, the moisture content turned out to be 30% and the “hygroscopicity compared with the amorphous form” value is given as “less hygroscopic”.
Consider `CCN(CCO)CCC[C@H](C)Nc1ccnc2cc(Cl)ccc12.O=S(=O)(O)O` [amorphous form, (S)-(+)-hydroxychloroquine sulfate, reference compound], for which, in series [4], the “RH at which moisture is adsorbed” value is listed as 25 % RH and the moisture content is 51%. Further, in series [4] (compared with type A and type B crystals), the “susceptibility to environment (desorption curve)” value is listed as “much more susceptible to an environment”.
